Data taken from article PMC7645381, “Development and application of a high-throughput screening assay for identification of small molecule inhibitors of the P. falciparum reticulocyte binding-like homologue 5 protein” (International Journal for Parasitology: Drugs and Drug …, 2020).
Where two headings read alike, the source gives them in different places.

Assays:
DCLK1 = molecular target: T1, DCLK1 (Homo sapiens, UniProt O15075); assay: Differential scanning fluorimetry of control protein DCLK1; type: binding; details: DSF
T1 construct: made in house
T1 sequence (O15075 372-649 limits assumed): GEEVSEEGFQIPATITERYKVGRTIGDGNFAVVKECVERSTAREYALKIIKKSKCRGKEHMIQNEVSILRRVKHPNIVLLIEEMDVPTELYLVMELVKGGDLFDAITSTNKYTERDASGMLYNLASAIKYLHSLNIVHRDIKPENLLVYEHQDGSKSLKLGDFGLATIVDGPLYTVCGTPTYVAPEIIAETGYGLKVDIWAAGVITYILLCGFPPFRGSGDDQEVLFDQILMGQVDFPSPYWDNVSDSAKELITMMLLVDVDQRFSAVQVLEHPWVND
Method: Doublecortin-like kinase domain 1 (DCLK1) used as a control protein in differential scanning fluorimetry experiments and was recombinantly expressed and purified according to the previously described protocol ([Patel et al., 2016]).
Differential scanning fluorimetry assays were performed as described previously ([Murphy et al., 2013], [2014a], [2014b]) using a Rotor-Gene Q PCR. Briefly, purified PfRh5 was diluted in 20 mM Tris pH 8.0, 150 mM NaCl to achieve 10 μg per reaction and assayed with the appropriate concentration of inhibitor in a total reaction volume of 25 μL. SYPRO Orange (Molecular Probes, CA) was used as a fluorescence probe and detected at 530 nm. Compounds were titrated at final concentrations ranging from 5 μM to 80 μM final. Data was transformed and plotted using GraphPad Prism. Shown data are representative means of two technical experiments.

[1] = molecular target: P. falciparum Rh5 (Rh5 – basigin interaction) (Plasmodium falciparum, UniProt Q8IFM5); assay: biochemical; design: AlphaScreen of Rh5 - His-tagged basigin interaction with anti-Rh5 mAb beads; inhibition of luminescence signal; details: Batch Reference=01; primary pilot screen, single point
Method: Using the Combi-multidrop, 5 μL of Rh5 stock solution (200 nM prepared in assay buffer) was added to columns 1–24 of the 384-well assay plate (Greiner 384-well white, low binding plate, #784904, Bioone). The PerkinElmer Janus automated dispensing system was then employed to transfer, via the pin-tool, 2 × 100 nL of the compound stock DMSO solution from the compound master plate to the assay plate. The plate was sealed and incubated for 30 min at room temperature. Using a Combi-multidrop, 5 μL of hexa-histidine tagged basigin stock solution (80 nM prepared in assay buffer) was then added to columns 1–23 and 5 μL assay buffer to column 24 of the 384-well assay plate. The plate was sealed again and incubated for 30 min at room temperature. A solution of AlphaScreen donor and acceptor beads (20 μg/mL prepared in assay buffer) plus anti-Rh5 mAb solution (2 μg/mL prepared in assay buffer) was prepared in assay buffer under subdued lighting. Using the Combi-multidrop, 10 μL of this solution was added to every well of the assay plate under subdued lighting. The plate was sealed with foil (plate max) and incubated at room temperature for 1 h. The assay plate was then analysed on the PerkinElmer Envision 2103 Multilabel Plate Reader (Ex 680, Em 520–620 nm). The optimised Rh5 AlphaScreen assay was then validated for HT screening purposes by conducting a pilot screen using known drug library (from Prestwick, Tocris and LOPAC) and the MMV Malaria Box, comprising 3708 and 400 compounds (Fig. 1), respectively. Historically, PPIs are notoriously difficult to target with small molecules. To enhance the likelihood of identifying an inhibitor of the Rh5 - basigin interaction the primary screen was conducted at a compound concentration of 20 μM. A 20 μM screening concentration is considered high, when compared to the commonly used primary screen concentrations of approximately 1–10 μM. To follow-up on hit compounds from the pilot validation screen, we next wanted to confirm the activity of the primary hits. To do this, a two-phase hit confirmation and counterscreen process was undertaken (Fig. 1). In the first phase, the 231 primary hits from both libraries were evaluated in the Rh5 AlphaScreen assay and counterscreen assay. Both assays were undertaken at 10 μM in duplicate. The counterscreen assay was conducted using AlphaScreen TruHits. […] The 45 secondary hits can be viewed in the top left quadrant of Fig. S8. Of the 45 hits, 13 compounds originated from the Malaria Box and 32 compounds from the known drug library.

[2] = test system: P. falciparum 3D7 parasites; assay: P. falciparum parasite viability assay (LDH); type: cell-based; details: LDH activity, 10-point dilution series, 72 h, read-out: P. falciparum 3D7 EC50
Method: A modified version of the lactate dehydrogenase (LDH) assay described by [Gamo et al. […] Compounds were pre-dispensed in 384-well plates, RPMI/Albumax growth media was added, and P. falciparum inoculated. Plates were incubated for 72 h and then frozen at −80 °C overnight. LDH activity was quantified with the modified cofactor 3-acetylpyridine adenine dinucleotide (APAD) (Sigma Aldrich) by measuring absorbance of the tetrazolium indicator nitro blue tetrazolium (NBT) (Sigma Aldrich) at 650 nm. Parasite conditions: […] Growth inhibition assay: […] Intermediate compound dilution plates were prepared by dispensing 5 μL from each well of the compound master plate into 11.5 μL of RPMI/Albumax growth media. Duplicate assay plates (384-well) were then prepared by dispensing 0.5 μL of compound from the intermediate dilution plates into 9.5 μL of RPMI/Albumax growth media. […] The final DMSO concentration was 0.1% (to limit toxicity to parasites). […] Evaluation of parasite growth measuring lactate dehydrogenase (LDH) activity: After 72 h of incubation, plates were frozen at −80 °C overnight and then thawed at room temperature for at least 4 h. […] Plates were shaken to ensure mixing and absorbance at 650 nm was monitored using a PerkinElmer Envision plate reader after 30 min of incubation at room temperature. Data were normalised to percent growth inhibition using positive and negative controls and analyzed using TIBCO Spotfire software.

P. falciparum D10 = P. falciparum D10 growth inhibition by flow cytometry; type: cell-based; details: Plasmodium falciparum, D10; growth inhibition by flow cytometry, 12-point dilution series, 72 h
Method: Pranlukast and selected analogues were then evaluated in a P. falciparum parasite viability assay. For this assay, we followed the procedure described by [Gamo et al. (2010)], that used lactate dehydrogenase (LDH) as a readout for parasite viability. In this assay, 3D7 parasites were incubated over 72 h in the presence of increasing concentrations of compounds. […]. For a comparison, selected compounds were incubated in the presence of P. falciparum D10 parasites for 72 h (Table 1, Fig. S14) and growth inhibition measured by flow cytometry. […].

Sequence of P. falciparum Rh5 (Rh5 – basigin interaction) (Q8IFM5 24-526): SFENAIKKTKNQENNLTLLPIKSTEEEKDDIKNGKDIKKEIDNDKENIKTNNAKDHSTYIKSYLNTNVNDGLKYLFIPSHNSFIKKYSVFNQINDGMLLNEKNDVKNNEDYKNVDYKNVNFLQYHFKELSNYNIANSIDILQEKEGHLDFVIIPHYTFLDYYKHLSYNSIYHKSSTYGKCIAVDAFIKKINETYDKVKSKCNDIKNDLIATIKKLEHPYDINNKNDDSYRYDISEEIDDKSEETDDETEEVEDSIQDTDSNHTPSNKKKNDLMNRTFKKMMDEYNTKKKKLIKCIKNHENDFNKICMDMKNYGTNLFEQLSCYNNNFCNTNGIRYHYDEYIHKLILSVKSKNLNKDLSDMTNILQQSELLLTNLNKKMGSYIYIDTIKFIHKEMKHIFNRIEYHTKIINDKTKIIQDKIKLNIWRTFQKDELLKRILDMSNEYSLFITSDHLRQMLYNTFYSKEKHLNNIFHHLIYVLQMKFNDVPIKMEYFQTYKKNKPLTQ

O=C(Nc1cccc2c(=O)cc(-c3nnn[nH]3)oc12)c1ccc(OCCCCc2ccccc2)cc1 [pranlukast]
effect on Tm of DCLK1 (DCLK1; concentration up to 20 μM): did not have a significant impact on the Tm of DCLK1
effect on Tm of DCLK1 (DCLK1; high concentration (>40 μM)): markedly lower Tm
inhibition at 20 µM [1]: 75.4%
EC50 [2]: 40 µM
EC50 ([2]; Plasmodium falciparum, 3D7, 72 h): 39 µM
EC50 (P. falciparum D10): 28 µM
